Where “and” joins values, the source holds several entries; their conditions need not be identical. Equal values may be shown once. Inconclusive results and toxic doses are left out. Numbered stars: 1 amine (or outer) side, 2 acyl side, 3 side chain; on linkers, the order of the positions; unused ones are H or OH. Square brackets hold non-standard residues; d marks the D form. Peptide text beside a SMILES is read from it. * marks the point of attachment. X18 = CCC(=O)CC1CC(C)CC(C(=O)[*:2])N1[*:1]; X17 = CCCCCCCCC(C)C(=O)*; Aib = CC(C)(N)C(=O)O; X19 = CC(CN(C)CCO)N*
Tested on: P388 leukemia ip, CD2F1 mice, survival T/C
Test: NCI In Vivo Anticancer Drug Screen. Data for tumor model P388 Leukemia (intraperitoneal) in CD2F1 (CDF1) mice
Details: endpoint: median survival time, higher = longer survival
Method in brief: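 Mice carrying the transplanted tumor received test compound or vehicle. Survival was recorded in each group, and the value is the treated-group measurement divided by that of the vehicle-treated control group.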

[1] = dose: 6.25 mg/kg/injection, schedule: Q01DX009 (ip), vehicle: saline with Tween-80
[2] = dose: 12.5 mg/kg/injection, schedule: Q01DX009 (ip), vehicle: saline with Tween-80
[3] = dose: 25.0 mg/kg/injection, schedule: Q01DX009 (ip), vehicle: saline with Tween-80
[4] = dose: 25.0 mg/kg/injection, schedule: Q01DX009 (ip), vehicle: saline
[5] = dose: 25.0 mg/kg/injection, schedule: Q04DX003 (ip), vehicle: saline
[6] = dose: 50.0 mg/kg/injection, schedule: Q01DX009 (ip), vehicle: saline
[7] = dose: 60.0 mg/kg/injection, schedule: Q01DX005 (ip), vehicle: saline with Tween-80
[8] = dose: 120.0 mg/kg/injection, schedule: Q01DX005 (ip), vehicle: saline with Tween-80
[9] = dose: 240.0 mg/kg/injection, schedule: Q01DX005 (ip), vehicle: saline with Tween-80
[10] = dose: 50.0 mg/kg/injection, schedule: Q01DX009 (ip), vehicle: saline with Tween-80
[11] = dose: 100.0 mg/kg/injection, schedule: Q01DX009 (ip), vehicle: saline with Tween-80
[12] = dose: 200.0 mg/kg/injection, schedule: Q01DX009 (ip), vehicle: saline with Tween-80

With `C=C1C(=O)O[C@@H]2/C=C(/C)[C@@]3(O)C=C[C@](C)(C[C@@H](OC(=O)/C(=C\C)COC(C)=O)[C@@H]12)O3` the T/C (dose: 2.5 mg/kg/injection, schedule: Q01DX009 (ip), vehicle: carboxymethylcellulose (CMC)) was 106 % of control, the T/C (dose: 5.0 mg/kg/injection, schedule: Q01DX009 (ip), vehicle: carboxymethylcellulose (CMC)) was 120 % of control and the T/C (dose: 10.0 mg/kg/injection, schedule: Q01DX009 (ip), vehicle: carboxymethylcellulose (CMC)) was 101 % of control. The T/C (dose: 20.0 mg/kg/injection, schedule: Q01DX009 (ip), vehicle: carboxymethylcellulose (CMC)) was 120 % of control.

For `CS(=O)(=O)OCCN(CCOS(C)(=O)=O)c1ccccc1`, the T/C (dose: 1.56 mg/kg/injection, schedule: Q04DX003 (ip), vehicle: saline) was 109 % of control, the T/C (dose: 3.13 mg/kg/injection, schedule: Q04DX003 (ip), vehicle: saline) was 104 % of control and the T/C [1] was 154 % of control. For the same compound, the T/C (dose: 6.25 mg/kg/injection, schedule: Q04DX003 (ip), vehicle: saline) was 122 % of control, the T/C [2] was 200 % of control and the T/C [3] was 181 % of control. The T/C [4] was 204 % of control, the T/C [5] was 204 % of control and the T/C [6] was 90 % of control.

`CC(C)(C)OC(=O)c1cccc(Br)c1` was tested, and the T/C (dose: 50.0 mg/kg/injection, schedule: Q01DX005 (ip), vehicle: saline with Tween-80) was 101 % of control, the T/C (dose: 100.0 mg/kg/injection, schedule: Q01DX005 (ip), vehicle: saline with Tween-80) was 104 % of control and the T/C (dose: 200.0 mg/kg/injection, schedule: Q01DX005 (ip), vehicle: saline with Tween-80) was 105 % of control.

For `C/C(=N\NC(=S)N1CCC(N2CCCCC2)CC1)c1ccccn1`, the T/C (dose: 6.25 mg/kg/injection, schedule: Q01DX005 (ip), vehicle: saline with Tween-80) was 112 % of control and the T/C (dose: 12.5 mg/kg/injection, schedule: Q01DX005 (ip), vehicle: saline with Tween-80) was 113 % of control.

`C1CC[N-]CC1.C1CC[N-]CC1.C1CC[N-]CC1.C1CC[N-]CC1.[Cl][Rh][Cl]` was tested, and the T/C (dose: 3.13 mg/kg/injection, schedule: Q01DX009 (ip), vehicle: saline with Tween-80) was 120 % of control, the T/C (dose: 4.0 mg/kg/injection, schedule: Q01DX009 (ip), vehicle: saline) was 118 % of control and the T/C [1] was 120 % of control and 123 % of control. For the same compound, the T/C [2] was 120 % of control and the T/C [3] was 92 % of control.

With `CCN(CC)CCS(=O)Cc1ccccc1` (stereo not given) the T/C [7] was 100 % of control, the T/C [8] was 93 % of control and the T/C [9] was 102 % of control.

In the case of `CCOC(C#CC(=O)C(C)C)OCC`, the T/C (dose: 60.0 mg/kg/injection, schedule: Q01DX005 (ip), vehicle: saline) is reported as 101 % of control, the T/C (dose: 120.0 mg/kg/injection, schedule: Q01DX005 (ip), vehicle: saline) is reported as 98 % of control and the T/C (dose: 240.0 mg/kg/injection, schedule: Q01DX005 (ip), vehicle: saline) is reported as 101 % of control.

With `CCCCCCCCC(C)C(=O)N1CCCC1C(=O)N1C(CC(=O)CC)CC(C)CC1C(=O)NC(C)C(=O)NC(C)(C)C(=O)NC(C)(C)C(=O)NC(C(=O)NC(C)C(=O)NC(C)(C)C(=O)NC(C)(C)C(=O)NC(C)CN(C)CCO)C(C)CC` (stereo not given) (X17-P[X18]A[Aib][Aib]IA[Aib][Aib]-X19; configuration not given here) the T/C (dose: 0.62 mg/kg/injection, schedule: Q01DX009 (ip), vehicle: Klucel (hydroxypropylcellulose) (HPC)) was 120 % of control, the T/C (dose: 1.25 mg/kg/injection, schedule: Q01DX009 (ip), vehicle: Klucel (hydroxypropylcellulose) (HPC)) was 118 % of control and the T/C (dose: 2.5 mg/kg/injection, schedule: Q01DX009 (ip), vehicle: Klucel (hydroxypropylcellulose) (HPC)) was 110 % of control.

`O=NN(CCCl)C(=O)NC1C2CC3CC(C2)CC1C3` (stereo not given) was tested, and the T/C (dose: 1.78 mg/kg/injection, schedule: Q01DX009 (ip), vehicle: other) was 118 % of control, the T/C (dose: 2.2 mg/kg/injection, schedule: Q04DX003 (ip), vehicle: other) was 104 % of control and the T/C (dose: 2.66 mg/kg/injection, schedule: Q01DX009 (ip), vehicle: other) was 116 % of control. The T/C (dose: 3.3 mg/kg/injection, schedule: Q04DX003 (ip), vehicle: other) was 118 % of control, the T/C (dose: 4.0 mg/kg/injection, schedule: Q01DX009 (ip), vehicle: other) was 169 % of control and the T/C (dose: 6.0 mg/kg/injection, schedule: Q01DX009 (ip), vehicle: other) was 225 % of control. The T/C (dose: 7.5 mg/kg/injection, schedule: Q04DX003 (ip), vehicle: other) was 177 % of control, the T/C (dose: 12.5 mg/kg/injection, schedule: Q04DX003 (ip), vehicle: other) was 180 % of control and the T/C (dose: 25.0 mg/kg/injection, schedule: Q04DX003 (ip), vehicle: other) was 300 % of control. For the same compound, the T/C (dose: 50.0 mg/kg/injection, schedule: Q04DX003 (ip), vehicle: other) was 300 % of control and the T/C (dose: 100.0 mg/kg/injection, schedule: Q04DX003 (ip), vehicle: other) was 105 % of control.

In the case of `O=C(c1ccccc1)C(F)(F)C(F)(F)F`, the T/C [3] is reported as 107 % of control, the T/C [10] is reported as 109 % of control and the T/C [11] is reported as 110 % of control. For the same compound, the T/C [12] was 109 % of control.

In the case of `COc1cc2c(cc1O)-c1c(cnn1-c1ccccc1)CCC2`, the T/C [6] is reported as 119 % of control, the T/C (dose: 100.0 mg/kg/injection, schedule: Q01DX009 (ip), vehicle: saline) is reported as 118 % of control and the T/C (dose: 200.0 mg/kg/injection, schedule: Q01DX009 (ip), vehicle: saline) is reported as 94 % of control.

For `Cc1ccc(S(=O)CC(O)COCc2ccccc2)cc1` (stereo not given), the T/C [10] was 89 % of control, the T/C [11] was 94 % of control and the T/C [12] was 91 % of control.

`COC(=O)C1C(C)(C)N=[N+]([O-])C1(C)C` (stereo not given) was tested, and the T/C (dose: 12.5 mg/kg/injection, schedule: Q01DX009 (ip), vehicle: water) was 102 % of control, the T/C (dose: 25.0 mg/kg/injection, schedule: Q01DX009 (ip), vehicle: water) was 107 % of control and the T/C (dose: 50.0 mg/kg/injection, schedule: Q01DX009 (ip), vehicle: water) was 99 % of control. For the same compound, the T/C (dose: 100.0 mg/kg/injection, schedule: Q01DX009 (ip), vehicle: water) was 97 % of control and the T/C (dose: 200.0 mg/kg/injection, schedule: Q01DX009 (ip), vehicle: water) was 99 % of control.

For `O=[N+]([O-])c1cnc(Oc2ccccc2[N+](=O)[O-])nc1`, the T/C (dose: 6.25 mg/kg/injection, schedule: Q01DX009 (ip), vehicle: Klucel (hydroxypropylcellulose) (HPC)) was 107 % of control, the T/C (dose: 12.5 mg/kg/injection, schedule: Q01DX009 (ip), vehicle: Klucel (hydroxypropylcellulose) (HPC)) was 98 % of control and the T/C (dose: 25.0 mg/kg/injection, schedule: Q01DX009 (ip), vehicle: Klucel (hydroxypropylcellulose) (HPC)) was 98 % of control. The T/C (dose: 100.0 mg/kg/injection, schedule: Q01DX009 (ip), vehicle: Klucel (hydroxypropylcellulose) (HPC)) was 86 % of control.

For `O=C(Nc1ccc(Nc2ccncc2)cc1)c1ccc(N2C(=O)c3ccccc3C2=O)cc1[N+](=O)[O-]`, the T/C [10] was 98 % of control, the T/C [11] was 95 % of control and the T/C [12] was 95 % of control.

With `Cc1c2c(c(C)c3c1C(=O)c1cc4c(cc1C3=O)OCO4)OC(C)(C)O2` the T/C [7] was 89 % of control, the T/C [8] was 94 % of control and the T/C [9] was 100 % of control.

With `COc1cc(OC)c(OC)cc1/C=C/c1ccc2ccccc2n1` the T/C [11] was 110 % of control, the T/C [12] was 110 % of control and the T/C (dose: 400.0 mg/kg/injection, schedule: Q01DX009 (ip), vehicle: saline with Tween-80) was 110 % of control.

For `O=CC1CO1` (stereo not given), the T/C (dose: 12.5 mg/kg/injection, schedule: Q01DX009 (ip), vehicle: saline) was 109 % of control, the T/C (dose: 12.5 mg/kg/injection, schedule: Q04DX003 (ip), vehicle: saline) was 112 % of control and the T/C [4] was 118 % of control. The T/C [5] was 104 % of control and the T/C (dose: 50.0 mg/kg/injection, schedule: Q04DX003 (ip), vehicle: saline) was 116 % of control.

In the case of `Cc1c(N)nc(C(CC(N)=O)NCC(N)C(N)=O)nc1C(=O)NC(C(=O)NC(C)C(O)C(C)C(=O)NC(C(=O)NCCc1nc(-c2nc(C(=O)NCCCNC(C)c3ccccc3)cs2)cs1)C(C)O)C(OC1OC(CO)C(O)C(O)C1OC1OC(CO)C(O)C(OC(N)=O)C1O)c1cnc[nH]1` (stereo not given), the T/C (dose: 0.25 mg/kg/injection, schedule: Q01DX009 (ip), vehicle: water) is reported as 104 % of control and 95 % of control, the T/C (dose: 0.5 mg/kg/injection, schedule: Q01DX009 (ip), vehicle: water) is reported as 100 % of control and 111 % of control and 88 % of control and the T/C (dose: 1.0 mg/kg/injection, schedule: Q01DX009 (ip), vehicle: water) is reported as 103 % of control and 104 % of control and 118 % of control. For the same compound, the T/C (dose: 2.0 mg/kg/injection, schedule: Q01DX009 (ip), vehicle: water) was 100 % of control and 113 % of control, the T/C (dose: 4.0 mg/kg/injection, schedule: Q01DX009 (ip), vehicle: water) was 114 % of control and 118 % of control and the T/C (dose: 8.0 mg/kg/injection, schedule: Q01DX009 (ip), vehicle: water) was 100 % of control.

In the case of `CCOP(=S)(N1CC1C)N1CC1C` (stereo not given), the T/C [10] is reported as 120 % of control, the T/C (dose: 66.0 mg/kg/injection, schedule: Q04DX003 (ip), vehicle: saline with Tween-80) is reported as 100 % of control and the T/C (dose: 100.0 mg/kg/injection, schedule: Q04DX003 (ip), vehicle: saline with Tween-80) is reported as 109 % of control.

From PubChem BioAssay AID330 (DTP/NCI, 2004)
